System: MC38 tumors
Assay: MC38 tumor model in ALK5^ΔCD8 mice, survival and tumor growth
Type: in vivo, mouse
Conditions: addition of LY2157299 in ALK5^ΔCD8 mice with MC38 tumors, FIGS. 5B and 5C
Procedure: FIG. 5A is a schematic showing the treatment strategy in the MC38 tumor model. C57BL/6 Wild-type (n=6-9/group) and ALK5^ΔCD8 (n=4-10/group) mice were implanted subcutaneously with MC38 tumor cells followed four days later by injection of some groups with anti-CD8a mAb to specifically deplete CD8^+ T cells. In other groups, mice also received LY2157299 via oral gavage twice daily (150 mg/kg) for seven days. Survival of mice was monitored until day 90 (FIG. 5B). […] The number of tumors cured over the total number of tumor-bearing mice is shown in the top right of each graph. Data from a representative experiment is shown reflective of two independent experiments total. ***=p<0.001.
Animal studies and cell culture: C57BL/6, BALB/c, CD8Cre, Lyz2Cre, and Foxp3-eGFP-CreERT2 mice were purchased from the Jackson Laboratories (Bar Harbor, Maine). ALK5flox/flox mice were a generous gift from Andrew Weinberg (Providence Cancer Center). All transgenic mice were on C57BL/6 background. […] Tumors were measured 3×/week until they reached the survival end-point of 144 mm^2. […] Following single cell preparation, cells were washed and resuspended in FACS buffer (1×PBS, 1% BSA, 2 mM EDTA) and counted prior to FACS staining using a Guava EasyCyte cytometer (Millipore). […]
Whether the improved survival and radiosensitivity observed in ALK5^ΔCD8 mice was dependent on CD8^+ T cells was next evaluated. […]

## Cc1cccc(-c2nn3c(c2-c2ccnc4ccc(C(N)=O)cc24)CCC3)n1 [LY2157299]
  survival or tumor growth kinetics: no improvement in survival or tumor growth kinetics

Reference: patent US12560591B2, “Methods of treatment with CD8 T cell-mediated immune therapy” (Providence Health & Services—Oregon, priority 2019, dated 2026)
